Columns and labels:
[1] = tested on: HEK293 cells; test: Preliminary screening as mRNA vectors, EGFP mRNA transfection of HEK293 cells; assay type: cell-based; settings: HEK293 cells, 96-well plates, EGFP mRNA 50 ng per well; percentage of GFP fluorescent cells relative to total number of cells (Hoechst)
Summary of the method: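 Screening format: EGFP mRNA transfection (50 ng/well) into HEK293 in 10% FBS-supplemented DMEM. Percent green fluorescent cells, normalised to Hoechst nuclear count, gave the value; Lipofectamine2000 was the reference transfectant.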

[2] = tested on: HEK293 cells; test: Preliminary screening as DNA vectors, GFP transfection of HEK293 cells; assay type: cell-based; settings: HEK293 cells; lipid/DOPE liposome with 75 ng plasmid DNA (psin-EGFP-IRES-Puro); number of cells expressing GFP divided by total number of nuclei (Hoechst)
Summary of the method: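 First, amino lipid and DOPE were vortexed in sodium acetate buffer (pH 5.6) to form liposomes. Next, these were held with 75 ng EGFP plasmid at room temperature for 30 min. Finally, HEK293 cells were added, cultured at 37° C., Hoechst-stained, and GFP+/total nuclei scored by imaging.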

| Compound | Absolute mRNA transfection efficiency in HEK293 cells [1] | Absolute DNA transfection efficiency in HEK293 cells [2] |
| --- | --- | --- |
| CCCCCCCCCCCNc1nc(NCCCCCCCCC)nc(NCCN2CCOCC2)n1 [Compound N9N11D2] | 0.3% | 0.0% |
| CCCCCCCCCCCNc1nc(NCCCCCCCCC)nc(NCCN2CCCC2)n1 [Compound N9N11D3] | 1.8% | 0.0% |
| CCCCCCCCCCCNc1nc(NCCCCCCCCC)nc(NCCN2CCCCC2)n1 [Compound N9N11D4] | 0.0% | 0.0% |
| CCCCCCCCCCCNc1nc(NCCCCCCCCC)nc(NCCN2CCN(C)CC2)n1 [Compound N9N11D5] | 1.1% | 0.0% |
| CCCCCCCCCCCNc1nc(NCCCCCCCCC)nc(NCCCN(C)C)n1 [Compound N9N11D6] | 0.5% | 0.0% |
| CCCCCCCCCCCNc1nc(NCCCCCCCCC)nc(NCCN(CC)CC)n1 [Compound N9N11D7] | 0.8% | 0.0% |
| CCCCCCCCCCCNc1nc(NCCCCCCCCC)nc(NCCCN2CCOCC2)n1 [Compound N9N11D8] | 0.4% | 0.0% |
| CCCCCCCCCCCNc1nc(NCCCCCCCCC)nc(NCCCN2CCN(C)CC2)n1 [Compound N9N11D9] | 0.7% | 0.0% |
| CCCCCCCCCCCNc1nc(NCCCCCCCCC)nc(NCC2CCN(C)CC2)n1 [Compound N9N11D10] | 0.0% | 0.0% |
| CCCCCCCCCCCCNc1nc(NCCCCCCCCC)nc(NCCN(C)C)n1 [Compound N9N12D1] | 0.5% | 0.0% |
| CCCCCCCCCCCCNc1nc(NCCCCCCCCC)nc(NCCN2CCOCC2)n1 [Compound N9N12D2] | 0.8% | 0.0% |
| CCCCCCCCCCCCNc1nc(NCCCCCCCCC)nc(NCCN2CCCC2)n1 [Compound N9N12D3] | 4.3% | 0.6% |
| CCCCCCCCCCCCNc1nc(NCCCCCCCCC)nc(NCCN2CCCCC2)n1 [Compound N9N12D4] | 2.4% | 0.0% |
| CCCCCCCCCCCCNc1nc(NCCCCCCCCC)nc(NCCN2CCN(C)CC2)n1 [Compound N9N12D5] | 3.8% | 0.0% |
| CCCCCCCCCCCCNc1nc(NCCCCCCCCC)nc(NCCCN(C)C)n1 [Compound N9N12D6] | 0.2% | 0.0% |
| CCCCCCCCCCCCNc1nc(NCCCCCCCCC)nc(NCCN(CC)CC)n1 [Compound N9N12D7] | 0.0% | 0.0% |
| CCCCCCCCCCCCNc1nc(NCCCCCCCCC)nc(NCCCN2CCOCC2)n1 [Compound N9N12D8] | 0.0% | 0.0% |
| CCCCCCCCCCCCNc1nc(NCCCCCCCCC)nc(NCCCN2CCN(C)CC2)n1 [Compound N9N12D9] | 0.1% | 0.0% |
| CCCCCCCCCCCCNc1nc(NCCCCCCCCC)nc(NCC2CCN(C)CC2)n1 [Compound N9N12D10] | 0.4% | 0.0% |
| CCCCCCCCCCCCCNc1nc(NCCCCCCCCC)nc(NCCN(C)C)n1 [Compound N9N13D1] | 2.2% | 0.4% |
| CCCCCCCCCCCCCNc1nc(NCCCCCCCCC)nc(NCCN2CCOCC2)n1 [Compound N9N13D2] | 0.6% | 0.0% |
| CCCCCCCCCCCCCNc1nc(NCCCCCCCCC)nc(NCCN2CCCC2)n1 [Compound N9N13D3] | 4.6% | 1.0% |

| Compound | Absolute mRNA transfection efficiency in HEK293 cells [1] | Absolute DNA transfection efficiency in HEK293 cells [2] |
| --- | --- | --- |
| CCCCCCCCCCCCCNc1nc(NCCCCCCCCC)nc(NCCN2CCCCC2)n1 [Compound N9N13D4] | 0.5% | 0.0% |
| CCCCCCCCCCCCCNc1nc(NCCCCCCCCC)nc(NCCN2CCN(C)CC2)n1 [Compound N9N13D5] | 0.2% | 0.3% |
| CCCCCCCCCCCCCNc1nc(NCCCCCCCCC)nc(NCCCN(C)C)n1 [Compound N9N13D6] | 0.4% | 0.0% |
| CCCCCCCCCCCCCNc1nc(NCCCCCCCCC)nc(NCCN(CC)CC)n1 [Compound N9N13D7] | 0.3% | 0.0% |
| CCCCCCCCCCCCCNc1nc(NCCCCCCCCC)nc(NCCCN2CCOCC2)n1 [Compound N9N13D8] | 0.0% | 0.0% |
| CCCCCCCCCCCCCNc1nc(NCCCCCCCCC)nc(NCCCN2CCN(C)CC2)n1 [Compound N9N13D9] | 2.5% | 0.0% |
| CCCCCCCCCCCCCNc1nc(NCCCCCCCCC)nc(NCC2CCN(C)CC2)n1 [Compound N9N13D10] | 2.8% | 0.3% |
| CCCCCCCCCCCCCCCNc1nc(NCCCCCCCCC)nc(NCCN(C)C)n1 [Compound N9N15D1] | 2.2% | 0.5% |
| CCCCCCCCCCCCCCCNc1nc(NCCCCCCCCC)nc(NCCN2CCOCC2)n1 [Compound N9N15D2] | 0.2% | 0.0% |
| CCCCCCCCCCCCCCCNc1nc(NCCCCCCCCC)nc(NCCN2CCCC2)n1 [Compound N9N15D3] | 4.7% | 0.5% |
| CCCCCCCCCCCCCCCNc1nc(NCCCCCCCCC)nc(NCCN2CCCCC2)n1 [Compound N9N15D4] | 0.6% | 0.0% |
| CCCCCCCCCCCCCCCNc1nc(NCCCCCCCCC)nc(NCCN2CCN(C)CC2)n1 [Compound N9N15D5] | 1.8% | 0.2% |
| CCCCCCCCCCCCCCCNc1nc(NCCCCCCCCC)nc(NCCCN(C)C)n1 [Compound N9N15D6] | 1.7% | 0.0% |
| CCCCCCCCCCCCCCCNc1nc(NCCCCCCCCC)nc(NCCN(CC)CC)n1 [Compound N9N15D7] | 0.8% | 0.0% |
| CCCCCCCCCCCCCCCNc1nc(NCCCCCCCCC)nc(NCCCN2CCOCC2)n1 [Compound N9N15D8] | 1.4% | 0.2% |
| CCCCCCCCCCCCCCCNc1nc(NCCCCCCCCC)nc(NCCCN2CCN(C)CC2)n1 [Compound N9N15D9] | 1.1% | 0.9% |
| CCCCCCCCCCCCCCCNc1nc(NCCCCCCCCC)nc(NCC2CCN(C)CC2)n1 [Compound N9N15D10] | 1.7% | 0.0% |
| CCCCCCCCCCCCCCCCNc1nc(NCCCCCCCCC)nc(NCCN(C)C)n1 [Compound N9N16D1] | 1.5% | 2.1% |
| CCCCCCCCCCCCCCCCNc1nc(NCCCCCCCCC)nc(NCCN2CCOCC2)n1 [Compound N9N16D2] | 0.7% | 0.0% |
| CCCCCCCCCCCCCCCCNc1nc(NCCCCCCCCC)nc(NCCN2CCCC2)n1 [Compound N9N16D3] | 4.3% | 2.2% |
| CCCCCCCCCCCCCCCCNc1nc(NCCCCCCCCC)nc(NCCN2CCCCC2)n1 [Compound N9N16D4] | 4.5% | 0.8% |

Source: patent US20230123334A1, “AMINO LIPID COMPOUND, PREPARATION METHOD THEREFOR, AND APPLICATION THEREOF” (SHENZHEN SHENXIN BIOTECHNOLOGY CO., LTD., priority 2020, published 2023)
